{
  "source": "patent US9914730B2",
  "about": "“Azaquinazoline inhibitors of Atypical protein Kinase C” (Ignyta, Inc., priority 2012, dated 2018)",
  "data": [
    {"biological_target": "T1, full-length human PKCι (Homo sapiens, UniProt P41743)", "T1 construct": "Recombinant, full-length human PKCι expressed in Sf21 insect cells is also commercially available; purchased; host or cells: Sf21 insect cells", "T1 sequence (P41743 1-596)": "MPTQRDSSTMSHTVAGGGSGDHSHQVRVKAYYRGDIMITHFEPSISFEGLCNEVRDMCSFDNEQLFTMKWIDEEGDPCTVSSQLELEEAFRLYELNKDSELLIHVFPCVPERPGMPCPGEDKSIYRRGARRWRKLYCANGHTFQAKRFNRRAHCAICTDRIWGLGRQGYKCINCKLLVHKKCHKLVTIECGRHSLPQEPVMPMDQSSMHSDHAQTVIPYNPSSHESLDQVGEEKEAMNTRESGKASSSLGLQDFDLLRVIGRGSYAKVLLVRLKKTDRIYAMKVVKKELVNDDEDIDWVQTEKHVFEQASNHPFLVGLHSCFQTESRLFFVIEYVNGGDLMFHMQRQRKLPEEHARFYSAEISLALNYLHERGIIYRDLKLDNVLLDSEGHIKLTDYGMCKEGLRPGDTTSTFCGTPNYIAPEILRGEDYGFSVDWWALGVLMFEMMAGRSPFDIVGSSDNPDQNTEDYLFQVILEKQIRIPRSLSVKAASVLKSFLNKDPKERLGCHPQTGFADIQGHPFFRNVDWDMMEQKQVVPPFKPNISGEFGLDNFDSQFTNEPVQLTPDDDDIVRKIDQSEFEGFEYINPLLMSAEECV", "experiment": "PKCι IC50 IMAP assay, full-length PKCι at 150 μM ATP", "type": "biochemical", "conditions": "read-out: IC50 in IMAP assay against full length PKCi at 150 μM ATP", "procedure,_shortened": "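Compounds in 4% final DMSO are mixed with Sf21-derived full-length human PKCι (typically 15 pM) and 100 nM FAM-labelled pseudosubstrate peptide, then started with 150 μM ATP. Reaction runs 60 min at room temperature, is quenched with IMAP development reagent for 2 h, and fluorescence polarisation is measured to derive IC50.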", "units": {"IC50": "nM"}, "values": [
      {"smiles": "COc1cncc2nc(-c3ccnc(Nc4cc(F)ccc4F)c3)nc(N3CCNCC3)c12", "note": "[Example 440, (2,5-Difluoro-phenyl)-[4-(5-methoxy-4-piperazin-1-yl-pyrido[3,4-d]pyrimidin-2-yl)-pyridin-2-yl]-amine]", "IC50": "< 100"},
      {"smiles": "COc1cncc2nc(-c3ccnc(Nc4c(F)cc(F)cc4F)c3)nc(N3CCNCC3)c12", "note": "[Example 441, [4-(5-Methoxy-4-piperazin-1-yl-pyrido[3,4-d]pyrimidin-2-yl)-pyridin-2-yl]-(2,4,6-trifluoro-phenyl)-amine]", "IC50": "< 100"},
      {"smiles": "COc1cncc2nc(-c3ccnc(Nc4c(F)cccc4F)c3)nc(N3CCN[C@@H](CO)C3)c12", "note": "[Example 442, ((R)-4-{2-[2-(2,6-Difluoro-phenylamino)-pyridin-4-yl]-5-methoxy-pyrido[3,4-d]pyrimidin-4-yl}-piperazin-2-yl)-methanol]", "IC50": "< 100"},
      {"smiles": "COc1cncc2nc(-c3ccnc(Nc4ccccc4)c3)nc(N3CCC(O)C(CO)C3)c12", "note": "(centres unmarked) [Example 443, 3-Hydroxymethyl-1-[5-methoxy-2-(2-phenylamino-pyridin-4-yl)-pyrido[3,4-d]pyrimidin-4-yl]-piperidin-4-ol]", "IC50": "1000 to 10000"},
      {"smiles": "COc1cncc2nc(-c3ccnc(Nc4c(F)ccc(F)c4F)c3)nc(N3CCNCC3)c12", "note": "[Example 444, [4-(5-Methoxy-4-piperazin-1-yl-pyrido[3,4-d]pyrimidin-2-yl)-pyridin-2-yl]-(2,3,6-trifluoro-phenyl)-amine]", "IC50": "< 100"},
      {"smiles": "COc1cncc2nc(-c3ccnc(Nc4ccccc4C(F)(F)F)c3)nc(N3CCNCC3)c12", "note": "[Example 445, [4-(5-Methoxy-4-piperazin-1-yl-pyrido[3,4-d]pyrimidin-2-yl)-pyridin-2-yl]-(2-trifluoromethyl-phenyl)-amine]", "IC50": "100 to 1000"},
      {"smiles": "COc1cncc2nc(-c3ccnc(Nc4cccc(C(F)(F)F)c4)c3)nc(N3CCNCC3)c12", "note": "[Example 446, [4-(5-Methoxy-4-piperazin-1-yl-pyrido[3,4-d]pyrimidin-2-yl)-pyridin-2-yl]-(3-trifluoromethyl-phenyl)-amine]", "IC50": "100 to 1000"},
      {"smiles": "COc1cncc2nc(-c3ccnc(Nc4cccc(F)n4)c3)nc(N3CCNCC3)c12", "note": "[Example 447, (6-Fluoro-pyridin-2-yl)-[4-(5-methoxy-4-piperazin-1-yl-pyrido[3,4-d]pyrimidin-2-yl)-pyridin-2-yl]-amine]", "IC50": "< 100"},
      {"smiles": "COc1cncc2nc(-c3ccnc(Nc4cccc(C(F)(F)F)n4)c3)nc(N3CCNCC3)c12", "note": "[Example 449, [4-(5-Methoxy-4-piperazin-1-yl-pyrido[3,4-d]pyrimidin-2-yl)-pyridin-2-yl]-(6-trifluoromethyl-pyridin-2-yl)-amine]", "IC50": "< 100"},
      {"smiles": "COc1cncc2nc(-c3ccnc(Nc4cccnc4F)c3)nc(N3CCNCC3)c12", "note": "[Example 450, (2-Fluoro-pyridin-3-yl)-[4-(5-methoxy-4-piperazin-1-yl-pyrido[3,4-d]pyrimidin-2-yl)-pyridin-2-yl]-amine]", "IC50": "< 100"},
      {"smiles": "COc1cncc2nc(-c3ccnc(Nc4cccc(C)c4F)c3)nc(N3CCNCC3)c12", "note": "[Example 451, (2-Fluoro-3-methyl-phenyl)-[4-(5-methoxy-4-piperazin-1-yl-pyrido[3,4-d]pyrimidin-2-yl)-pyridin-2-yl]-amine]", "IC50": "< 100"},
      {"smiles": "COc1cncc2nc(-c3ccnc(Nc4cccc(C(F)(F)F)c4F)c3)nc(N3CCNCC3)c12", "note": "[Example 452, (2-Fluoro-3-trifluoromethyl-phenyl)-[4-(5-methoxy-4-piperazin-1-yl-pyrido[3,4-d]pyrimidin-2-yl)-pyridin-2-yl]-amine]", "IC50": "100 to 1000"},
      {"smiles": "COc1cncc2nc(-c3ccnc(Nc4ccc(F)cc4F)c3)nc(N3CCNCC3)c12", "note": "[Example 453, (2,4-Difluoro-phenyl)-[4-(5-methoxy-4-piperazin-1-yl-pyrido[3,4-d]pyrimidin-2-yl)-pyridin-2-yl]-amine]", "IC50": "< 100"},
      {"smiles": "COc1cncc2nc(-c3ccnc(Nc4ccc(F)c(F)c4F)c3)nc(N3CCNCC3)c12", "note": "[Example 454, [4-(5-Methoxy-4-piperazin-1-yl-pyrido[3,4-d]pyrimidin-2-yl)-pyridin-2-yl]-(2,3,4-trifluoro-phenyl)-amine]", "IC50": "100 to 1000"}
    ]}
  ]
}
